Laboratory results taken from patent publication US9790218B2, “Small molecule activators of calcium-activated chloride channels and methods of use” (The Regents of the University of California, priority 2011, dated 2017).

What was measured:
[1] = system: cytoplasmic Ca^2+ in FRT cells; experiment: Cytoplasmic calcium measured by Fluo-4 fluorescence; type: cell-based; settings: 10 μM activator
Description: (§1) FIG. 2A-E. Characterization of TMEM16A activators. FIG. 2A. Cytoplasmic calcium measured by Fluo-4 fluorescence. 100 μM ATP (gray line) or 10 μM of indicated TMEM16A activators were added at the arrow. FIG. 2B. Apical membrane current measured in TMEM16A-expressing FRT cells in the presence of a transepithelial chloride gradient and after basolateral membrane permeabilization. […] T16Ainh-A01 (10 μM) added where indicated. […] (right) Concentration-activation data summary (mean±S.E., n=4-6). FIG. 2C. Synergistic effect of Eact and Fact. (left and center) Representative current traces showing synergy. (right) Data summary of low doses of TMEM16A activation (mean±S.E., n=5, * P<0.05). FIG. 2D. Apical membrane current measured in FRT cells transfected with mouse TMEM16A or TMEM16B. FIG. 2E. Effect of Eact and Fact on CFTR and ENaC. (left) FRT cells expressing wild type CFTR and YFP indicator were pretreated for 5 min with 10 μM Eact and Fact. Forskolin (10 μM) added as indicated. (right) HBE cells were pre-treated for 5 min with 10 μM Eact and Fact, with amiloride (10 μM) added as indicated.
FRT cells in 96-well black-walled microplates were loaded with Fluo-4 NW per the manufacturer's protocol (Invitrogen, Carlsbad, Calif.). Fluo-4 fluorescence was measured with a FLUOstar Optima fluorescence plate reader equipped with syringe pumps and custom Fluo-4 excitation/emission filters (485/538 nm).

CFTR = biological target: T1, CFTR (Homo sapiens, UniProt P13569); experiment: CFTR conductance in FRT cells expressing wild type CFTR and YFP indicator; type: cell-based; settings: 10 μM, 5 min pretreatment; forskolin 10 μM
T1 construct: expressed in transfected cells; host or cells: FRT cells co-expressing a YFP halide indicator
Description: as §1

[2] = system: CF human bronchial epithelial (CF HBE) cells; experiment: Short-circuit current in CF HBE cells; type: cell-based
Description: FIG. 5A-B. Airway epithelial chloride secretion. FIG. 5A. Short-circuit current in CF HBE cells. Eact and UTP (100 μM) were added in control (left) and IL-4 (10 ng/ml, 24 h, middle) treated CF HBE cells. (right) Summary of Eact-induced, T16Ainh-A01-sensitive peak current (mean±S.E., n=6-8, * P<0.05). ENaC was inhibited by 10 μM amiloride. FIG. 5B. Eact (10 μM) and UTP (100 μM) induced CaCC Cl^− current measured in primary cultures of non-CF human tracheal gland (HTG) serous cells. (left and gmiddle) TMEM16A, CFTR and ENaC were inhibited by pretreatment with T16Ainh-A01, CFTRinh-172 and amiloride, respectively. Inset: TMEM16A immunoblot in whole cell homogenates of CF HBE and HTG cells. (right) Summary of UTP and Eact-induced peak current in the presence and absence of T16Ainh-A01 (mean±S.E., n=3, * P<0.05).
Tracheal and bronchial tissues were obtained from non-CF and CF patients following lung transplantation or from postmortem examinations performed within 24 h after death. […]
Snapwell inserts containing TMEM16A-expressing FRT, HBE, CF HBE or HTG cells were mounted in Ussing chambers (Physiologic Instruments, San Diego, Calif.). […] Apical membrane current (for FRT cells) and short-circuit current were measured using an EVC4000 Multi-Channel V/I Clamp (World Precision Instruments, Sarasota, Fla.) and recorded using PowerLab/8sp (AD Instruments, Castle Hill, Australia).

[3] = system: mouse ileal smooth muscle; experiment: Intestinal smooth muscle contraction, ex vivo mouse ileal segments; settings: T16Ainh-A01 10 μM
Description: FIG. 8A-C. Intestinal smooth muscle contraction. FIG. 8A. Representative traces from mouse ileal segments showing effects of T16Ainh-A01 (10 μM), carbachol (CCh, 1 μM) and Eact (10 μM). FIG. 8B. Effect of CCh (1 μM) and Eact (10 μM) following atropine (1 μM). FIG. 8C. Summary of contraction frequency (left), and resting and maximum tone (right) (mean±S.E., n=4-7, * P<0.05).
Wild type CD1 mice (age 8-10 weeks) were killed by avertin overdose (200 mg/kg). The ileum removed and washed with ice-cold HCO3^−-buffered solution. The ends of the ileal segments were tied with silk thread and connected to a force transducer. Beal segments were equilibrated for 60 min with a resting force of ˜1 mN, with changes of the bathing solution every 15 min. Tension was monitored continuously with a fixed-range precision force transducer (TSD, 125 C; Biopac, Goleta, Calif.) connected to a differential amplifier (DA 100B; Biopac). Data were recorded using MP100, Biopac digital acquisition system and analyzed using Acknowledge 3.5.7 software.
TMEM16A in expressed in the interstitial cells of Cajal, the pacemaker cells that control smooth muscle contraction dynamics in stomach and intestine (Huang et al., supra; Gomez-Pinilla et al. (2009) Am. J. Physiol. Gastrointest. Liver Physiol. 296, G1370-1381). The effect of Eact on mouse ileal smooth muscle contraction was investigated using an ex vivo intestinal preparation. […] Without wishing to be bound by theory, the constitutive TMEM16A activity in this ex vivo preparation could obscure Eact activity. To reveal Eact effects, atropine was first added to inhibit basal contractions. […] FIG. 8C summarizes data on contraction frequency, resting tone and maximal tone.

T1 sequence (P13569 whole entry): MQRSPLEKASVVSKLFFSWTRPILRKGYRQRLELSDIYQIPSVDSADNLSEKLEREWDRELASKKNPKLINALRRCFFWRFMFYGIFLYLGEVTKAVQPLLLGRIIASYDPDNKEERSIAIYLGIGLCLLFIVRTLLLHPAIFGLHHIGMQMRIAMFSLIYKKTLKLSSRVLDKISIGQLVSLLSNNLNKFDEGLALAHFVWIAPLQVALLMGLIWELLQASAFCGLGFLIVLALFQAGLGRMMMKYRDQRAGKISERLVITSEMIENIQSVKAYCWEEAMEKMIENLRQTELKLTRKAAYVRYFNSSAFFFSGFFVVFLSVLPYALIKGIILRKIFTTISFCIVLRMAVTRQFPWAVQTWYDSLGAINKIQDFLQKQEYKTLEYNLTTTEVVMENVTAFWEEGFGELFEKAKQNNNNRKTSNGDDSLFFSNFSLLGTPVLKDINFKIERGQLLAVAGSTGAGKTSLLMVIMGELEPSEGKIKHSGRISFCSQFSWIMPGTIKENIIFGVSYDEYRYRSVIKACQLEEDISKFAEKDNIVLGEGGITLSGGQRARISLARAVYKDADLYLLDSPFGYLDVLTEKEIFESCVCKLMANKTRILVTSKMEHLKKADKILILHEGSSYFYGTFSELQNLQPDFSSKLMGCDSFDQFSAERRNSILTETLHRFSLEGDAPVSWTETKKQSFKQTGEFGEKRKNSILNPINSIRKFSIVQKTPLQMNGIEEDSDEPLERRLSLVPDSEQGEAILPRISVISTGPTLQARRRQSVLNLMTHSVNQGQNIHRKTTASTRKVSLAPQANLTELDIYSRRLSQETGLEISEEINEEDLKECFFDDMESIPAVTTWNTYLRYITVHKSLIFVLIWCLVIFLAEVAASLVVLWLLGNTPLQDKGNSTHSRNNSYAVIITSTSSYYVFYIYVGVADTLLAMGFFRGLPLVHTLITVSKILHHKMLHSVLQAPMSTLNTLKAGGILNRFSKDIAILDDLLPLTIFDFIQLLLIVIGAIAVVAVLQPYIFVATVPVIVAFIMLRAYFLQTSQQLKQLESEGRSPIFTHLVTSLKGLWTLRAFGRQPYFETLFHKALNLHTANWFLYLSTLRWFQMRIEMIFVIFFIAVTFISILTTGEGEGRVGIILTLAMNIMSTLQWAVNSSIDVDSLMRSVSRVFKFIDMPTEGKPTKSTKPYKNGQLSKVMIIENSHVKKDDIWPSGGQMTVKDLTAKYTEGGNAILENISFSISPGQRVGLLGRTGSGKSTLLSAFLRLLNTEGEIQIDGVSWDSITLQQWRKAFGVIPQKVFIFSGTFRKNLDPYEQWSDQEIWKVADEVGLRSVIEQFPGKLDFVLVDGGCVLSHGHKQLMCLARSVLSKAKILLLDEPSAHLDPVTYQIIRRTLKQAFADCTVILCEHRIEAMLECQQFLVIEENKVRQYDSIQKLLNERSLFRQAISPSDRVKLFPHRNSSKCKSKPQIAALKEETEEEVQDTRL

## O=C(Nc1ccc(Br)cc1)c1cccc(-n2cnnn2)c1 [Fact, N-(4-bromophenyl)-3-(1H-tetrazol-1-yl)benzamide]
[1]
  effect on cytoplasmic Ca^2+: did not elevate Ca^2+
CFTR
  effect on CFTR conductance: Neither Eact nor Fact affected

## CCc1c(C)nc(SCC(=O)Nc2nc(-c3ccc(OC)cc3)cs2)[nH]c1=O [T16Ainh-A01, reference compound]
[2]
  block of Eact-induced Cl^− current in IL-4 treated CF bronchial cells: blocked
[3]
  spontaneous intestinal contractions at baseline: inhibited
